Test results: US11046647B2, “Activators of the unfolded protein response” (The Board of Trustees of the University of Illinois, priority 2018, dated 2021)
Several values for one entry are separate records, joined by “and”; a condition that tells them apart may be missing. Equal values may be shown once.

What was measured:
[1] = tested on: TYS-Luc (T47DERαY537S-Luc human breast cancer cells) tumors; test: Orthotopic TYS-Luc mouse xenograft, bioluminescent imaging (BLI); type: in vivo
Protocol: In a treatment and vehicle-controlled mouse tumor study, human breast cancer cells were engineered to contain both the lethal ERαY537S mutation found in metastatic breast cancer, and the gene for firefly luciferase—when the appropriate chemical is added, the firefly luciferase breaks down the chemical and light is produced. Using a sensitive detector called an imaging system, this allows us to image the tumors inside live mice. This is called bioluminescent imaging, or BLI. Large tumors were allowed to form. Then (−)-105 was injected daily under the skin for three weeks. Using the imaging system, the effect of (−)-105 on the tumors was monitored. At the same time the effect of the vehicle in which (−)-105 was dissolved on tumors was also monitored.
A study was performed to determine what happens after stopping treatment with (−)-105 (Table 2). The study was designed to show whether the micro-tumors would remain dormant, or whether they would regrow. At the end of the three-week treatment, there is residual material that gives off a tiny amount of light which are termed “micro-tumors”. Based on sensitivity of the imaging system, it is believed these micro-tumors contain anywhere from 0˜1,000 cancer cells; the micro-tumors will not be visible to the naked eye. Seeing them requires the powerful imaging system, or a microscope. To test whether these cells are either dead, or no longer dividing and are dormant, the cells two and 4 weeks after they stopped receiving any treatment were imaged. This study tested whether growing cancer cells have been eradicated; this study continues.
In a 3-week study, large breast tumors were present at start of treatment and regressed as shown in the image of FIG. 17. The study was performed using Orthotopic TYS-Luc (injected cells: T47DERαY537-Luc human breast cancer cells), e.g., the most lethal ERα mutation in human in metastatic breast cancer. Tumors were grown in NSG mice. Further details are provided in the Examples.
Experimental Details of the Xenografts: TYS-Luc cells (5,000,000 cells in Matrigel) were injected into the upper mammary fat pad of ovariectomized female NSG (SCID) mice (Jackson labs). After 10 weeks, on day 0, large tumors (size range: 100-600 mm^3) were present. Mice were treated with the vehicle used to dissolve (−)-105, or (−)-105 at 40 mg/kd daily by subcutaneous injection. For bioluminescent imaging (BLI) of the tumors, the mice were anesthetized with isoflurane and Lucerfin, the luciferase substrate, was injected into the mice. Flux, the total member of light photons hitting the detector in one second was measured using an IVIS ([…]). Shown is the flux (in millions of units per second) for the entire area containing each tumor, or an equivalent area when the tumor is tiny or undetectable and the percent change in tumor size at each time a measurement was taken (day 0, day 3, week 1, week 2, week 3). Then treatment was stopped, and another measurement was taken two weeks letter. Note that tumors were also measured with calipers. […] After three days all the (−)-105 tumors has declined to undetectable using calipers.

[2] = tested on: intracellular ATP levels in TYS-Luc cells; test: Intracellular ATP levels, TYS-Luc cells; type: cell-based, human; conditions: 1,000 nM
Protocol: TYS-Luc cells were maintained DMSO vehicle (Veh), 1,000 nM BHPI, 1,000 nM (−)-105 with and without 10,000 nM thapsigargin (THG) for the indicated times. ATP levels were determines using a kit and relative ATP levels were from a standard curve. […] (n=3±SEM).

MCF-7 tumors = test: MCF-7 orthotopic tumor model; type: in vivo, mouse
Protocol: FIG. 39. SERK-F6 eradicates wild-type ERα tumors via hyperactivation of aUPR. a, MCF-7 orthotopic tumors were established in Nu/J ovariectomized mice supplemented with a 60 day E2 pellet (0.36 mg) and grown to ˜400 mm^3 (28 days to establish), randomized, then treated with vehicle daily (n=3), vehicle weekly (n=3), fulv. weekly (5 mg/mouse, s.c., n=6), SERK-F6 daily (10 or 40 mg/kg p.o.). Vehicle arms were averaged. p values: *: p≤0.05, **: p≤0.01, ***: p≤0.001, ****: p≤0.0001. Tumor images were taken at the end of the study (day 21) and are representative of all tumors (n=6). b-e, MCF-7 cells were orthotopically bi-laterally grafted and tumors were grown until total tumor burden was ˜400 mm^3 prior to daily treatment with vehicle or SERK-F6 (40 mg/kg p.o.). Mice (n=5 per arm) were sacrificed after 3 days (b,c) and 7 days (d,e) and tumors harvested. […] Vinculin (Vin) was used as a loading control. […] Error bars represent S.E.M.
To probe the efficacy of SERK-F6 for killing ERα positive tumors, large MCF-7 tumors were grown and then intervened with therapy. […] The mice were then sacrificed prior to complete tumor eradication.

T47D cells = test: 24-hour crystal violet assay; type: cell-based, human
Protocol: FIG. 36. Discovery of SERK-F6 (also known as, C(−)-105, (−)-105, (R)-105, (−)-1, or (R)-1), a compound that kills ERα-positive cancer cells, a, Chemical structures of BHPI and racemic compound 1 (i.e. (±)-1), and their cytotoxic activity on T47D breast cancer cells after 24-hour incubations with concentrations as indicated in nM. Cells were stained with annexin V-FITC and PI dyes prior to analysis via flow cytometry. […] Cells were incubated with SERK-F6 or positive control, Raptinal, for 24 hours and then stained with annexin V-FITC and PI dyes and analyzed via flow cytometry. Error bars represent S.E.M of 3 independent replicates. c, IC50 values of SERK-F6 after 24-hour incubation against a panel of cancer cell lines grouped by their reported ERα status. Cell viability was measured by Alamar blue fluorescence and set relative to a vehicle control and a quantitative dead control treated with Raptinal. Error bars represent S.E.M of 3 independent experiments. d, Crystal violet staining of T47D cells after 24-hour incubations with compounds and concentrations as indicated. Image is representative of 2 independent experiments. e,f, Long-term cell culture experiment with T47D, TDG, and TYS cells. Cells were incubated for 2 weeks with compounds (1 μM), followed by compound washout, and cells were cultured for 2 months. Cell number was determined by MTS.

[3] = 2 weeks after treatment stopped, per mouse
[4] = 4 weeks after treatment stopped, per mouse

## O=C1Nc2c(C(F)(F)F)cccc2C1(c1ccc(O)cc1)c1ccc(OC(F)(F)F)cc1 (single isomer, unassigned; (-)) [(−)-105, 3-(4-hydroxyphenyl)-3-(4-(trifluoromethoxy)phenyl)-7-(trifluoromethyl)indolin-2-one]
[1]; 10 mg/kg oral
  tumor regrowth after sub-therapeutic dose: tumors did regrow
[1]; [3]
  Week 2 No Drug % Change in Tumor Flux: −99.95% and −99.84% and −100% (2×) and −99.991%
  Week 2 No Drug Tumor Flux: 0.13 millions of photons/sec and 0.11 millions of photons/sec and 0 millions of photons/sec (2×) and 0.17 millions of photons/sec
[1]; 3-week treatment
  health / toxicity of treated mice: No toxicity
[1]; 4 weeks after stopping treatment
  micro-tumor regrowth after stopping treatment: NO “MICRO-TUMOR” REGROWTH
[1]; [4]
  Week 4 No Drug % Change in Tumor Flux: −99.98% and −99.88% and −100% and −99.997% and −99.998%
  Week 4 No Drug Tumor Flux: 0.038 millions of photons/sec (2×) and 0.084 millions of photons/sec and 0 millions of photons/sec and 0.048 millions of photons/sec
[1]; Day 3, per mouse, 40 mg/kg daily, 40 mg/kg
  Day 3 Flux: 0.22 millions of photons/s and 0.043 millions of photons/s and 0.40 millions of photons/s and 0.29 millions of photons/s and 0.17 millions of photons/s
[1]; Day 3 vs Day 0, per mouse
  Day 3 % Change in Tumor Flux: −99.99% (2×) and −99.98% (2×) and −99.45%
[1]; Day 7, per mouse
  Day 7 Flux: 0.082 millions of photons/s and 0.041 millions of photons/s and 0.17 millions of photons/s and 0.059 millions of photons/s and 0.18 millions of photons/s
[1]; Day 7 vs Day 0, per mouse
  Day 7 % Change in Tumor Flux: −99.996% (2×) and −99.99% (2×) and −99.77%
[1]; Day 14, per mouse
  Day 14 Flux: 0.246 millions of photons/s and 0.039 millions of photons/s and 0.245 millions of photons/s and 0 millions of photons/s and 0.071 millions of photons/s
[1]; Day 14 vs Day 0, per mouse
  Day 14 % Change in Tumor Flux: −99.99% (2×) and −99.66% and −100% and −99.996%
[1]; Day 21, per mouse
  Day 21 Flux: 0.051 millions of photons/s and 0.16 millions of photons/s and 0.14 millions of photons/s and 0 millions of photons/s and 0.046 millions of photons/s
[1]; Day 21 vs Day 0, per mouse
  Day 21 % Change in Tumor Flux: −99.998% and −99.94% and −99.81% and −100% and −99.997%
[1]; after 21 daily doses 40 mg/kg i.p.
  tumor regrowth upon treatment cessation: tumors did not regrow
[1]; after 3 days of treatment
  tumor regression by BLI, 4 of the 5 tumors: more than 99.9%
  tumor regression by BLI, all five tumors: more than 99%
  tumor size using calipers, all 5 mice: undetectable
[1]; after three weeks
  tumor regression by BLI, 3 of the remaining 4 mice: more than 99.9%
[1]; dose-dependent, i.p. and oral administration
  effect on Y537S tumors (TYS cell line): eradicates Y537S tumors
[1]; i.p. and oral administration
  tolerability: tolerated
[1]; start of no-drug recovery after 3 weeks treatment, per mouse
  Start Recovery Flux: 0.16 millions of photons/sec and 0.14 millions of photons/sec and 0 millions of photons/sec and 0.046 millions of photons/sec and 0.051 millions of photons/sec
[1]; start of no-drug recovery, per mouse
  Start No Drug: % change in Tumor Flux: −99.94% and −99.81% and −100% and −99.997%
[1]; two weeks after treatment was stopped
  microtumor regrowth after stopping treatment: had not started growing again
[1]; within seven days
  tumor size using calipers, all 5 tumors: undetectable size
[2]
  intracellular ATP levels: reduces intracellular ATP levels
MCF-7 tumors; 40 mg/kg p.o., 3 and 7 days
  UPR markers in tumors (western blot): increases in P-PERK and P-eiF2alpha levels
MCF-7 tumors; daily treatment
  murine weight during the study: did not lead to any change in murine weight
MCF-7 tumors; large established MCF-7 tumors, SERK-F6 10 or 40 mg/kg p.o. daily, fulv. 5 mg/mouse s.c. weekly
  tumor response: dramatic tumor regressions
T47D cells
  cell killing: quantitatively kills
